Laboratory results taken from PubChem BioAssay AID248 (DTP/NCI, 2004).
“And” between values parts separate entries of the source, which are not always exact repeats. Equal values may be shown once. Inconclusive results and toxic doses are left out. No stated cut-off is given here; in the data, active means T/C of 150% or more; inactive means T/C below 125%.

Tested on: L1210 leukemia ip in BDF1 mice, survival T/C
Assay: NCI In Vivo Anticancer Drug Screen. Data for tumor model L1210 Leukemia (intraperitoneal) in B6D2F1 (BDF1) mice
Conditions: endpoint: mean survival time, higher = longer survival
Summary of the method: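 Transplanted-tumor mice were given test agent; controls received vehicle only. Survival readings from the two groups were divided (treated over control).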

[1] = dose: 100.0 mg/kg/injection, schedule: Q01DX001 (ip), vehicle: saline
[2] = dose: 200.0 mg/kg/injection, schedule: Q01DX001 (ip), vehicle: saline
[3] = dose: 400.0 mg/kg/injection, schedule: Q01DX001 (ip), vehicle: saline
[4] = dose: 100.0 mg/kg/injection, schedule: Q01DX001 (ip), vehicle: carboxymethylcellulose (CMC)
[5] = dose: 200.0 mg/kg/injection, schedule: Q01DX001 (ip), vehicle: carboxymethylcellulose (CMC)
[6] = dose: 400.0 mg/kg/injection, schedule: Q01DX001 (ip), vehicle: carboxymethylcellulose (CMC)
[7] = dose: 100.0 mg/kg/injection, schedule: Q04DX002 (ip), vehicle: saline
[8] = dose: 100.0 mg/kg/injection, schedule: Q04DX003 (ip), vehicle: saline with Tween-80
[9] = dose: 200.0 mg/kg/injection, schedule: Q04DX003 (ip), vehicle: saline with Tween-80
[10] = dose: 400.0 mg/kg/injection, schedule: Q04DX003 (ip), vehicle: saline with Tween-80
[11] = dose: 50.0 mg/kg/injection, schedule: Q01DX009 (ip), vehicle: Klucel (hydroxypropylcellulose) (HPC)
[12] = dose: 100.0 mg/kg/injection, schedule: Q01DX009 (ip), vehicle: Klucel (hydroxypropylcellulose) (HPC)
[13] = dose: 200.0 mg/kg/injection, schedule: Q01DX009 (ip), vehicle: Klucel (hydroxypropylcellulose) (HPC)
[14] = dose: 100.0 mg/kg/injection, schedule: Q01DX009 (ip), vehicle: saline
[15] = dose: 100.0 mg/kg/injection, schedule: Q04DX003 (ip), vehicle: Klucel (hydroxypropylcellulose) (HPC)
[16] = dose: 200.0 mg/kg/injection, schedule: Q04DX003 (ip), vehicle: Klucel (hydroxypropylcellulose) (HPC)
[17] = dose: 6.25 mg/kg/injection, schedule: Q01DX009 (ip), vehicle: Klucel (hydroxypropylcellulose) (HPC)
[18] = dose: 12.5 mg/kg/injection, schedule: Q01DX009 (ip), vehicle: Klucel (hydroxypropylcellulose) (HPC)

Measured: T/C

c1ccc(NC(c2ccccc2)C(Nc2ccccc2)(c2ccccc2)c2ccccc2)cc1 (centres undefined)
inactive: dose: 100.0 mg/kg/injection, schedule: Q04DX003 (ip), vehicle: other 89 % of control | dose: 200.0 mg/kg/injection, schedule: Q04DX003 (ip), vehicle: other 94 % of control | dose: 400.0 mg/kg/injection, schedule: Q04DX003 (ip), vehicle: other 87 % of control

Cn1cc[n+](C)c1
inactive: [1] 102 % of control | [2] 97 % of control | [3] 100 % of control

Cc1c(C)c2ccccc2[nH]c1=O
inactive: [4] 88 % of control | [1] 100 % of control | [5] 88 % of control | [2] 95 % of control | [6] 96 % of control | [3] 95 % of control

CCCCCCCCCCN1CCC(N2CCCCC2)CC1
inactive: dose: 25.0 mg/kg/injection, schedule: Q04DX002 (ip), vehicle: saline 102 % of control | dose: 50.0 mg/kg/injection, schedule: Q04DX002 (ip), vehicle: saline 102 % of control | [7] 98 % of control and 91 % of control

CCS(=O)CCNC(=O)NS(=O)(=O)c1ccc(C)cc1 (centres undefined)
inactive: [8] 100 % of control | [9] 101 % of control | [10] 97 % of control

Cc1[nH]c2ccc([N+](=O)[O-])cc2c(=O)c1[N+](=O)[O-] (tested in a mixture with another compound)
inactive: [11] 94 % of control | [12] 87 % of control | [13] 105 % of control

COC1OCC2OC(C)(C)OC2C1OS(C)(=O)=O (centres undefined)
inactive: [1] 107 % of control | [2] 112 % of control | [3] 97 % of control

CCCCCCCCCCCC(=O)Nc1ccccc1C(F)(F)F
inactive: dose: 100.0 mg/kg/injection, schedule: Q01DX009 (ip), vehicle: acetone 96 % of control | dose: 200.0 mg/kg/injection, schedule: Q01DX009 (ip), vehicle: acetone 95 % of control | dose: 400.0 mg/kg/injection, schedule: Q01DX009 (ip), vehicle: acetone 94 % of control

CC12CCC(C(=O)CC1=O)C2(C)C (centres undefined)
inactive: [14] 100 % of control | dose: 200.0 mg/kg/injection, schedule: Q01DX009 (ip), vehicle: saline 104 % of control | dose: 400.0 mg/kg/injection, schedule: Q01DX009 (ip), vehicle: saline 96 % of control

CCC(C)C(CN)(CCN(C)CC)c1cccc2ccccc12 (centres undefined)
inactive: [8] 90 % of control

C/C=C\C=C\COC(=O)CC(C)C
inactive: [7] 103 % of control | dose: 200.0 mg/kg/injection, schedule: Q04DX002 (ip), vehicle: saline 103 % of control | dose: 400.0 mg/kg/injection, schedule: Q04DX002 (ip), vehicle: saline 103 % of control

Cc1ncc2c(=O)n(-c3ccc([N+](=O)[O-])cc3)[nH]c2n1
inactive: [8] 108 % of control | [9] 100 % of control | [10] 108 % of control

CC(C)c1cccc2ccccc12
inactive: dose: 100.0 mg/kg/injection, schedule: Q04DX003 (ip), vehicle: acetone 95 % of control | dose: 200.0 mg/kg/injection, schedule: Q04DX003 (ip), vehicle: acetone 88 % of control

Cc1cc(Br)c(O)c(Br)c1
inactive: dose: 75.0 mg/kg/injection, schedule: Q01DX001 (ip), vehicle: Klucel (hydroxypropylcellulose) (HPC) 99 % of control | dose: 150.0 mg/kg/injection, schedule: Q01DX001 (ip), vehicle: Klucel (hydroxypropylcellulose) (HPC) 100 % of control | dose: 300.0 mg/kg/injection, schedule: Q01DX001 (ip), vehicle: Klucel (hydroxypropylcellulose) (HPC) 95 % of control

CC1([N+](=O)[O-])COP(=O)(NCc2ccncc2)OC1 (centres undefined)
inactive: dose: 50.0 mg/kg/injection, schedule: Q01DX001 (ip), vehicle: carboxymethylcellulose (CMC) 107 % of control | [4] 104 % of control | [5] 104 % of control | [6] 109 % of control

c1ccc(-c2csc(NNc3nc(-c4ccccc4)cs3)n2)cc1
inactive: [15] 95 % of control | [16] 90 % of control | dose: 400.0 mg/kg/injection, schedule: Q04DX003 (ip), vehicle: Klucel (hydroxypropylcellulose) (HPC) 112 % of control

CSc1ccc(NC(=O)OCCOc2ccccc2)cc1
inactive: dose: 100.0 mg/kg/injection, schedule: Q01DX001 (ip), vehicle: saline with Tween-80 94 % of control | dose: 100.0 mg/kg/injection, schedule: Q01DX009 (ip), vehicle: saline with Tween-80 96 % of control and 89 % of control | dose: 100.0 mg/kg/injection, schedule: Q04DX002 (ip), vehicle: saline with Tween-80 99 % of control | [8] 100 % of control | dose: 200.0 mg/kg/injection, schedule: Q01DX001 (ip), vehicle: saline with Tween-80 94 % of control | dose: 200.0 mg/kg/injection, schedule: Q01DX009 (ip), vehicle: saline with Tween-80 97 % of control and 89 % of control | dose: 200.0 mg/kg/injection, schedule: Q04DX002 (ip), vehicle: saline with Tween-80 108 % of control | [9] 102 % of control | dose: 400.0 mg/kg/injection, schedule: Q01DX001 (ip), vehicle: saline with Tween-80 110 % of control | dose: 400.0 mg/kg/injection, schedule: Q01DX009 (ip), vehicle: saline with Tween-80 94 % of control and 107 % of control | dose: 400.0 mg/kg/injection, schedule: Q04DX002 (ip), vehicle: saline with Tween-80 89 % of control | [10] 102 % of control

CC(=O)c1cccc(NC(=O)OCC2CC3C=CC2C3)c1 (centres undefined)
inactive: [12] 112 % of control | [13] 104 % of control | dose: 400.0 mg/kg/injection, schedule: Q01DX009 (ip), vehicle: Klucel (hydroxypropylcellulose) (HPC) 103 % of control

O=C1c2cc3c(cc2CCC1c1ccc2c(c1)OCO2)OCO3 (centres undefined)
inactive: dose: 40.0 mg/kg/injection, schedule: Q01DX009 (ip), vehicle: saline with Tween-80 88 % of control | dose: 80.0 mg/kg/injection, schedule: Q01DX009 (ip), vehicle: saline with Tween-80 88 % of control | dose: 120.0 mg/kg/injection, schedule: Q01DX009 (ip), vehicle: saline with Tween-80 94 % of control | dose: 240.0 mg/kg/injection, schedule: Q01DX009 (ip), vehicle: saline with Tween-80 94 % of control | dose: 240.0 mg/kg/injection, schedule: Q01DX009 (ip), vehicle: saline 93 % of control | dose: 360.0 mg/kg/injection, schedule: Q01DX009 (ip), vehicle: saline with Tween-80 96 % of control | dose: 360.0 mg/kg/injection, schedule: Q01DX009 (ip), vehicle: saline 96 % of control | dose: 545.0 mg/kg/injection, schedule: Q01DX009 (ip), vehicle: saline 91 % of control

O=C1/C(=C\c2ccccc2)C(NC2CCCCC2)c2ccccc21 (centres undefined)
inactive: dose: 3.12 mg/kg/injection, schedule: Q01DX009 (ip), vehicle: Klucel (hydroxypropylcellulose) (HPC) 108 % of control | [17] 101 % of control | [18] 95 % of control

CC1CN1P1(N2CC2C)=NP(N2CC2C)(N2CC2C)=NP(N2CC2C)(N2CC2C)=N1 (centres undefined)
inactive: dose: 12.5 mg/kg/injection, schedule: Q01DX001 (ip), vehicle: saline 106 % of control | dose: 12.5 mg/kg/injection, schedule: Q04DX003 (ip), vehicle: saline 116 % of control | dose: 25.0 mg/kg/injection, schedule: Q01DX001 (ip), vehicle: saline 105 % of control | dose: 25.0 mg/kg/injection, schedule: Q01DX009 (ip), vehicle: saline 118 % of control | dose: 25.0 mg/kg/injection, schedule: Q04DX003 (ip), vehicle: saline 116 % of control | dose: 50.0 mg/kg/injection, schedule: Q01DX001 (ip), vehicle: saline 120 % of control | dose: 50.0 mg/kg/injection, schedule: Q01DX009 (ip), vehicle: saline 111 % of control | dose: 50.0 mg/kg/injection, schedule: Q04DX003 (ip), vehicle: saline 112 % of control | dose: 75.0 mg/kg/injection, schedule: Q04DX003 (ip), vehicle: acetone 120 % of control | [14] 106 % of control | dose: 170.0 mg/kg/injection, schedule: Q04DX003 (ip), vehicle: acetone 105 % of control | [2] 104 % of control

CC(NC(=O)NCCCl)c1ccco1 (centres undefined)
inactive: [17] 104 % of control | [18] 98 % of control | dose: 25.0 mg/kg/injection, schedule: Q01DX009 (ip), vehicle: Klucel (hydroxypropylcellulose) (HPC) 109 % of control | [11] 114 % of control | [12] 106 % of control | [15] 101 % of control | [16] 93 % of control
